Measured values from the NIST ThermoML archive (doi:10.1016/j.fluid.2009.11.030).

Assay: excess molar enthalpy (molar enthalpy of mixing); xn = mol fraction of the nth substance listed
Conditions: 101.3 kPa, Liquid, Isothermal microcalorimeter

CCOC(=O)CC(=O)OCC [diethyl 1,3-propanedioate] + CC(C)CO
excess molar enthalpy [kcal/mol]
Conditions	288.15 K	298.15 K	313.15 K	328.15 K	338.15 K	348.15 K
x1 = 0.0502	0.146	0.146	0.165	0.168	0.166	0.159
x1 = 0.0983	0.252	0.265	0.293	0.3	0.298	0.296
x1 = 0.1494	0.3339	0.3583	0.396	0.4001	0.4065	0.4054
x1 = 0.2006	0.4018	0.4238	0.4785	0.4986	0.4993	0.4947
x1 = 0.2484	0.4517	0.4907	0.5428	0.5531	0.5588	0.5578
x1 = 0.2989	0.4924	0.537	0.588	0.613	0.6095	0.6121
x1 = 0.3486	0.5217	0.5636	0.6226	0.6508	0.6477	0.6456
x1 = 0.3972	0.5413	0.5887	0.6475	0.662	0.6687	0.6649
x1 = 0.4484	0.5531	0.5985	0.6542	0.6752	0.674	0.6721
x1 = 0.4981	0.5598	0.6076	0.6513	0.6718	0.6699	0.6654
x1 = 0.5504	0.5535	0.5951	0.6367	0.6546	0.6537	0.6451
x1 = 0.6006	0.533	0.5739	0.6142	0.6224	0.6178	0.6171
x1 = 0.6485	0.5103	0.5473	0.5801	0.5863	0.5829	0.5772
x1 = 0.6985	0.4761	0.5029	0.538	0.5354	0.5261	0.5272
x1 = 0.7508	0.4223	0.4558	0.4775	0.4711	0.4606	0.4622
x1 = 0.8	0.3659	0.3905	0.4065	0.3972	0.3881	0.3846
x1 = 0.8514	0.295	0.31	0.3246	0.3131	0.304	0.297
x1 = 0.899	0.2	0.218	0.236	0.216	0.224	0.211
x1 = 0.9485	0.115	0.111	0.133	0.119	0.124	0.116

CCOC(=O)CC(=O)OCC [diethyl 1,3-propanedioate] + CCCCCCC
excess molar enthalpy [kcal/mol]
Conditions	288.15 K	298.15 K	313.15 K	328.15 K	338.15 K	348.15 K
x1 = 0.0503	–	–	–	0.0896	0.0877	0.0903
x1 = 0.0581	0.105	0.1	0.103	–	–	–
x1 = 0.1008	–	0.171	0.171	0.179	0.174	0.174
x1 = 0.1086	0.179	–	–	–	–	–
x1 = 0.1476	0.2254	0.232	0.238	0.2433	0.247	0.2424
x1 = 0.1984	0.2751	0.2921	0.3059	0.3133	0.3143	0.3074
x1 = 0.2495	0.3131	0.348	0.3619	0.3748	0.37	0.3647
x1 = 0.3007	0.3537	0.3867	0.413	0.4221	0.4283	0.4125
x1 = 0.3481	0.3659	0.4142	0.4436	0.4587	0.4529	0.4517
x1 = 0.3997	0.3786	0.4269	0.4622	0.4828	0.4842	0.4742
x1 = 0.4474	0.381	0.4338	0.4689	0.4883	0.4943	0.4876
x1 = 0.4993	0.3826	0.4348	0.472	0.4897	0.4971	0.4912
x1 = 0.5474	0.3815	0.4326	0.4656	0.4837	0.4909	0.4811
x1 = 0.5997	0.3755	0.4202	0.4515	0.467	0.478	0.4622
x1 = 0.6481	0.3626	0.4054	0.4331	0.4431	0.4503	0.4398
x1 = 0.7008	0.3466	0.374	0.3991	0.4128	0.4149	0.3999
x1 = 0.7495	0.3231	0.3446	0.3576	0.3693	0.3678	0.3609
x1 = 0.7985	0.2868	0.3002	0.3011	0.3222	0.3181	0.3105
x1 = 0.8476	0.237	0.2443	0.2459	0.254	0.257	0.246
x1 = 0.9009	0.167	0.167	0.165	0.18	0.178	0.17
x1 = 0.9504	0.0887	0.0891	0.0887	0.104	0.0939	0.0875

CCOC(=O)CC(=O)OCC [diethyl 1,3-propanedioate] + CCCCCO
excess molar enthalpy [kcal/mol]
Conditions	288.15 K	298.15 K	313.15 K	328.15 K	338.15 K	348.15 K
x1 = 0.0494	–	0.146	–	–	–	–
x1 = 0.0583	0.153	–	0.179	0.171	0.185	0.195
x1 = 0.1007	0.235	0.258	0.282	0.292	0.294	0.301
x1 = 0.1478	0.31	0.338	0.387	0.391	0.3934	0.3987
x1 = 0.2	0.3731	0.4132	0.4584	0.4859	0.4897	0.49
x1 = 0.2474	0.4204	0.4646	0.5196	0.5471	0.5504	0.5566
x1 = 0.3001	0.4622	0.5153	0.5793	0.6047	0.6154	0.6068
x1 = 0.3474	0.4885	0.5428	0.6142	0.6424	0.6482	0.6441
x1 = 0.4003	0.512	0.5712	0.6389	0.6666	0.6707	0.6764
x1 = 0.4472	0.5203	0.5844	0.6465	0.6793	0.68	0.6816
x1 = 0.4997	0.5284	0.5896	0.6467	0.6819	0.6826	0.6781
x1 = 0.55	0.528	0.5815	0.6405	0.669	0.6692	0.6656
x1 = 0.5975	0.516	0.5674	0.6209	0.6456	0.6439	0.6405
x1 = 0.6466	0.4945	0.543	0.5906	0.6121	0.5973	0.5992
x1 = 0.6973	0.4653	0.5067	0.5447	0.5609	0.5569	0.5497
x1 = 0.7497	0.4199	0.4572	0.4857	0.4974	0.4919	0.4826
x1 = 0.7988	0.3709	0.3982	0.4185	0.4235	0.4218	0.407
x1 = 0.8494	0.3	0.3198	0.332	0.334	0.331	0.315
x1 = 0.9017	0.212	0.223	0.226	0.232	0.224	0.217
x1 = 0.9501	0.11	0.12	0.121	0.121	0.114	0.109
